Laboratory results taken from a melting point compilation (Tetko et al.; mined from patent text by program, amines drawn as free bases though some values may be those of a salt).

| Structure (SMILES) | melting point [°C] |
| --- | --- |
| CCOC(=O)c1cnn(-c2ccc(CBr)cc2)n1 | 148 to 149 |
| N=C(N)N(Cc1ccccc1)c1ccc2c3c(cccc13)CC2 | 138 to 140 |
| O=C1C(=O)N2CCCc3cc([N+](=O)[O-])cc1c32 | 198 to 199 |
| Nc1ncc(-c2ccccc2)nc1Sc1ccccc1 | 109 to 112 |
| CCCCNc1c(C(=O)OCC)cnc2onc(C)c12 | 60 |
| CN(c1cccc2cc(C(=O)O)[nH]c12)S(=O)(=O)c1nccn1C | 241 to 242 |
| CC1(C)Cc2nsc(=Nc3c(F)cc(Cl)c4nc(Cl)sc34)n2C1 | 134 to 136 |
| N#Cc1cc(C(=O)CC(O)(c2cc(Cl)cc(Cl)c2)C(F)(F)F)ccc1F (stereo unspecified) | 146 to 147 |
| CCOc1nn(Cc2ccc(OCn3nnc4ccccc43)cc2)cc1CCC(=O)O | 136 to 137 |
| Cc1cn(N=Cc2cccnc2)c(=O)n1C | 186 to 187 |
| C1=C(c2ccccc2)c2ccccc2C1(Cc1ccncc1)Cc1ccncc1 | > 250 |
| CCOc1ccc2c(ccn2C)c1O | 69 to 70 |
| O=C(c1ccc(-c2ccccc2)cc1)n1c2cc(O)c(O)cc2c2ccc(O)c(O)c21 | 291 to 294 |
| CCCCS(=O)c1ccc(C(=O)OC)nc1 (stereo unspecified) | 150 to 154 |
| CC(C)(C)C(=O)Oc1cc([N+](=O)[O-])cc([N+](=O)[O-])c1O | 132 to 135 |
| Cc1oc(-c2ccccc2)nc1CCCc1ccc(CC(C(=O)O)c2cccc(-c3ccccc3)c2)cc1 (stereo unspecified) | 75 to 80 |
| O=C(Nc1ccc(N2CCCC2)nc1)c1cc2cc(F)ccc2n1Cc1ccncc1 | 255 to 257 |
| CC1Cc2cc3c(cc2C(c2ccc([N+](=O)[O-])cc2)=NN1C(=O)C(C)(C)C)OCO3 (stereo unspecified) | 164 to 166 |
| COc1ccccc1CC(=O)N1C[C@@H]2[C@H](C1)[C@@](O)(c1ccccc1OC)[C@H](O)CC2(c1ccccc1)c1ccccc1 (racemic) | 278 |
| CC(O)=C1C(=O)CC(c2ccccc2Cl)CC1=O (stereo unspecified) | 100 to 101 |
| COc1cccc2c3c(cnc12)CCCN3c1ccccc1C | 160 to 161 |
| COc1cccc(-c2cc(Cl)ncn2)c1 | 112 to 115 |
| O=C(O)c1coc(Cc2ccccc2)n1 | 155 to 156 |
| O=C1N(Cc2cc(=O)[nH]c(=O)[nH]2)c2ccccc2C12COc1cc3c(cc12)OCO3 (stereo unspecified) | > 300 |

| Structure (SMILES) | melting point [°C] |
| --- | --- |
| c1ccc(Nc2nc3ccccc3n3cc(-c4ccccc4)cc23)cc1 | 172 |
| NC(=NO)c1cccc(-c2nc3sccn3c2-c2ccnc(NC3CCCN(S(=O)(=O)c4ccc(Cl)cc4)C3)n2)c1 (stereo unspecified) | 272 to 273 |
| O=C1CCC(N2Cc3cc(CNC(=O)Nc4c(Cl)cccc4Cl)ccc3C2=O)C(=O)N1 (stereo unspecified) | 238 to 240 |
| COc1ccc(NC(=O)c2ccc(C3(C#N)CCCC3)cc2)cc1 | 163 to 168 |
| Cc1ccc(Cl)cc1N1CN(C(C)(C)C)CN(C)C1=S | 130 to 132 |
| CC(C)[C@H](NC(=O)OC(C)(C)C)C(=O)NC1CCC(Nc2cccc3c2C(=O)c2ccccc2C3=O)CC1 (stereo partly specified) | 179 |
| CC(C)(C)OC(=O)NCCNC(=O)c1ncccc1Oc1ccccc1 | 97 to 98 |
| Cc1cc(=O)c(C(=O)Nc2nnc(C)s2)c(C)o1 | 203 to 204 |
| O=C1NC(=O)c2c1c(-c1ccccc1Cl)cc1c2c2cc(O)c(OCCCN3CCOCC3)cc2n1CCO | 253 to 255 |
| CC(C)(C)c1ccccc1COc1ccc(N)nn1 | 147 to 149 |
| Cc1ccc2c(n1)Oc1ccc(C(C)C(=O)OCC(=O)N(C)C)cc1C2 (stereo unspecified) | 150 to 151 |
| CC(C)C[C@@H]1NC(=O)[C@@H]1O | 141 to 142 |
| COc1ccc(-c2ccc3cc(C(=O)O)ccc3c2)cc1C12CC3CC(CC(C3)C1)C2 | 321 |
| O=C(Nc1cccc([N+](=O)[O-])c1)c1ccc([N+](=O)[O-])cc1 | 229 to 232 |
| O=C(O)/C=C/n1cnc2ccc(Cl)cc2c1=O | 297 to 298 |
| CC(c1ccccc1)N1CCN(c2nn(C)c3c2Cc2ccccc2-3)CC1 (stereo unspecified) | 138 to 139 |
| CC1CC(=O)c2cc(Cl)c(F)cc2O1 (stereo unspecified) | 88 to 90 |
| Cc1nc(-c2cn(Cc3ccc(C(F)(F)F)cc3)nn2)sc1C(=O)NCc1cccnc1 | 204 to 205 |
| COC(=O)CCC(=NOCc1ccc(OCc2nc(-c3ccco3)oc2C)c(OC)c1)c1ccccc1 | 67 to 69 |
| O=[N+]([O-])c1cn2c(n1)OC[C@@H](OCc1cnc(Cl)cn1)C2 | 181 to 183 |
| COCC(C)N(C(=O)N(CCCl)N=O)C1(O)C(O)C(CO)OC(OCC(C)C)C1O (stereo unspecified) | 66 to 68 |
| COC(=O)c1nc2cc(Cl)c(Cl)c(Cl)c2c(O)c1C(=O)OC | 227 to 228 |
| CC(=O)Nc1cc(I)c(-c2cc([N+](=O)[O-])c(NC(C)=O)cc2I)cc1[N+](=O)[O-] | 296 to 298 |
| COc1c(NC2CCC3(CC2)OCC(C)(C)CO3)ccnc1C | 45 |

| Structure (SMILES) | melting point [°C] |
| --- | --- |
| Nc1ccc([N+](=O)[O-])c(Cl)c1Cl | 170 to 174 |
| Cc1ncsc1C(=O)Nc1ccc(-n2nc(C3CC3)cc2C2CC2)cc1 | 110 to 114 |
| Nc1cc(-n2cc(C(=O)O)c(=O)c3cc(F)c(Cl)nc32)ccc1F | > 270 |
| CC(C)(C)NS(=O)(=O)c1ccccc1 | 77 to 78 |
| Cc1coc(C)c1-c1nc2cc(Cl)cc(CCc3ccccn3)c2o1 | 73 to 76 |
| CCCCCCCCCCCCNC(=O)Oc1ccc2oc3ccccc3c2c1 | 112 to 114 |
| CCOC(=O)c1cnc2c(cnn2CC)c1Nc1ccccc1N | 126 to 128 |
| CCOP(=O)(CCN1CCC(N(C)S(=O)(=O)c2ccc(Nc3nccc(Nc4ccc(F)cc4)n3)cc2)CC1)OCC | 95 to 100 |
| O=C(O)c1cccc(CN2C(=O)N(c3ccccc3Br)Cc3cnc(Nc4ccccc4)nc32)c1 | 180 to 183 |
| CCOC(=O)c1cc(CC)sc1Nc1ccccc1N | 50 to 52 |
| Fc1ccc(Nc2nc(Cl)nc(Cl)n2)cc1C(F)(F)F | 114 to 117 |
| Oc1ccccc1CNC1CCN(Cc2ccccc2)CC1 | 92.5 to 93 |
| CCCCOc1ccc(C(=O)NCCCCCCCNC(=O)c2ccc(OCCCC)cc2)cc1 | 151 to 152 |
| CCS(=O)c1ccc(Oc2ccc(Cl)c(Cl)c2)nc1C#N (stereo unspecified) | 138 to 144 |
| CC(CO)Cn1cnc2c(N)nc3ccccc3c21 (stereo unspecified) | 258 to 261 |
| CCCCOC(=O)C=C(C)C=CC=C(C)C=Cc1c(C)c(C)c(OC)c(C)c1C | 230 to 233 |
| COc1nc(C)nc(NC(=O)NS(=O)(=O)c2cccnc2OCC2CC2)n1 | 165 to 167 |
| CC(=O)NCCCc1ccc(CN2CCN(c3ccccc3)CC2)cc1 | 117 to 118 |
| Cc1cc(C(N)=O)ncc1C(c1c(F)ccc(F)c1F)S(=O)(=O)CCC(C)(F)F (stereo unspecified) | 165 to 166 |
| OCCCN1CCC(c2noc3cc(F)ccc23)CC1 | 140 to 142 |
| CC1(C)COC(c2ccc(Br)cc2)OC1 | 62 to 64 |
| O=C(CCN1CCN(c2cnc3ccccc3c2)CC1)c1csc2ccccc12 | 112 to 114 |
| CCOCC1=C(C(=O)OCC)C(c2ccc(OC)c(F)c2)C(C(=O)OCC)=C(C)N1 (stereo unspecified) | 120 |
| Cc1ccccc1-c1nsc(S(=O)(=O)N=CN2CCOCC2)n1 | 151 to 153 |

| Structure (SMILES) | melting point [°C] |
| --- | --- |
| CN1C(=O)N2CCOC2(c2ccccc2)c2cc([N+](=O)[O-])ccc21 (stereo unspecified) | 136 |
| CN1C(C(=O)NC2N=C3CCSC=C3S2)=C(O)c2ccc3ccccc3c2S1(=O)=O (stereo unspecified) | 255 |
| CS(=O)(=O)Nn1c(=O)[nH]c2cc(C(F)(F)F)c(C3CCCO3)cc2c1=O (stereo unspecified) | 254 to 257 |
| Ic1cnn(-c2cccnc2)c1 | 145 to 146 |
| CC(C)(C)OC(=O)N1CCN(c2nc(N)nc3nc(N)c(-c4ccccc4)nc23)CC1 | 245 to 246 |
| O=C1CCC(=O)N1CCCCSc1ccncc1 | 80 to 81 |
| Cc1ccc(N2C(=O)NC(=O)C23CCN(Cc2ccccc2)CC3)cc1 | 291 to 293 |
| O=C(Cl)c1cc(C#Cc2ccccc2)c(C(=O)Cl)cc1C#Cc1ccccc1 | 174 to 180 |
| CC(O)c1ccccc1-c1ccc(C(=O)N2Cc3ccc(C(=O)NCc4cccnc4)n3Cc3ccccc32)cc1 (single isomer, unassigned; (-)) | 118 |
| Cn1c(=O)[nH]c2ccc(-c3cccc([N+](=O)[O-])c3)cc21 | 264 to 265 |
| COP(=O)(CC(=C(c1ccc(F)cc1)c1ccc(F)cc1)n1cnnn1)OC | 133 to 134 |
| COC(=O)CC(O)CP(=O)(C#Cc1c(-c2ccc(F)cc2)c2n(c1C(C)C)CCCC2)OC (stereo unspecified) | 145 to 146 |
| CC(Oc1cccc(C=Cc2ccc3ccc(Cl)cc3n2)c1)C(N)=O (single isomer, unassigned; (-)) | 195 to 197 |
| CNc1cc(CO)cc(S(N)(=O)=O)c1Oc1ccccc1 | 167 to 168 |
| CCOC(=O)c1cn(Cc2ccccc2)nc1OCc1ccc(OCc2nc(-c3ccco3)oc2C)c(-c2ccccc2)c1 | 134 to 135 |
| CN(C)C(=O)Nc1c(Cl)cc2c(c1Cl)C(c1ccccc1F)=NCC(=O)N2C | 145 to 147 |
| CC(C)n1cc(-c2nc(C#N)c(N)nc2-c2ccccc2)ccc1=O | 204 |
| Cc1c(OCc2ccc(F)cc2F)cc(C)n(C2CCCCC2)c1=O | 118 to 120 |
| CSc1nnc(N2CCN(c3ccc(N4CC(CNC(C)=O)OC4=O)cc3F)CC2)s1 (stereo unspecified) | 222 to 223 |
| C=C(C)C(=O)OCCOc1ccc(-c2cc(OC(=O)C(=C)C)cc(-c3ccc(OCCOC(=O)C(=C)C)cc3)c2)cc1 | 99 |
| Cc1ccc(C(=O)c2c(O)c3cc(C)ccc3[nH]c2=S)cc1 | 280 |
| CCCCC(C)(OC)C(O)C=CC1C(O)CC(=O)C1CCCCCCC(=O)OC (stereo unspecified) | 44 to 45 |
| CCCOc1ccccc1-c1nc2nc(NCCCSC)ncc2c(=O)[nH]1 | 173 to 174 |
| CCCO[C@@H](Cc1ccc(OCCc2nc(-c3ccc(-c4ccccc4)cc3)oc2C)c2ccccc12)C(=O)O | 151 to 154 |
